The species entered for data set [1] is Rattus norvegicus. Put plainly: Toxicity in rat assessed as induction of weight loss. In kind it is organism-based. As to conditions: in vivo.
Data set [2] can be described thus: Metabolic stability in human liver microsomes after 10 mins. The data set is classed as ADME, Microsome. As to conditions: read-out: Stability. On the technique in general: Liver microsomes are vesicles of endoplasmic reticulum, rich in cytochrome P450 enzymes.
Data set [3] is described as follows: Oral bioavailability in Sprague-Dawley rat at 10 mg/kg. As to conditions: in vivo. In kind it is ADME, organism-based.
Data set [4] can be described thus: Clearance in Sprague-Dawley rat at 2 mg/kg, iv. In kind it is ADME, organism-based. Details: dose 2 mg/kg, route intravenous. As to conditions: in vivo.
Data set [5] in a line: Volume of distribution at steady state in Sprague-Dawley rat at 2 mg/kg, iv. As to conditions: in vivo, read-out: Vdss. Set-up: dose 2 mg/kg, route intravenous. The data set is classed as ADME, organism-based.
Data set [6] is described as follows: Half life in Sprague-Dawley rat at 2 mg/kg, iv. The data set is classed as ADME, organism-based. Set-up: dose 2 mg/kg, route intravenous. As to conditions: in vivo.
Data set [7] in a line: Half life in Sprague-Dawley rat at 10 mg/kg, po. In kind it is ADME, organism-based. Set-up: dose 10 mg/kg, route oral. As to conditions: in vivo.
The species named for data set [8] is Rattus norvegicus. The experiment in a line: Toxicity in rat assessed as induction of mucoid feces. As to conditions: in vivo. In kind it is organism-based.
Data set [9] is described as follows: Metabolic stability in rat liver microsomes after 10 mins. The data set is classed as ADME, Microsome. As to conditions: read-out: Stability.
The species entered for data set [10] is Rattus norvegicus. Put plainly: Toxicity in rat assessed as induction of cold body. In kind it is organism-based. As to conditions: in vivo.
The nature of data set [11]: Cmax in Sprague-Dawley rat at 10 mg/kg, po. The data set is classed as ADME, organism-based. Set-up: dose 10 mg/kg, route oral. As to conditions: in vivo.
Data set [12] addresses T1, Tyrosine-protein kinase receptor UFO (Homo sapiens, UniProt P30530).
T1 sequence (P30530 whole entry): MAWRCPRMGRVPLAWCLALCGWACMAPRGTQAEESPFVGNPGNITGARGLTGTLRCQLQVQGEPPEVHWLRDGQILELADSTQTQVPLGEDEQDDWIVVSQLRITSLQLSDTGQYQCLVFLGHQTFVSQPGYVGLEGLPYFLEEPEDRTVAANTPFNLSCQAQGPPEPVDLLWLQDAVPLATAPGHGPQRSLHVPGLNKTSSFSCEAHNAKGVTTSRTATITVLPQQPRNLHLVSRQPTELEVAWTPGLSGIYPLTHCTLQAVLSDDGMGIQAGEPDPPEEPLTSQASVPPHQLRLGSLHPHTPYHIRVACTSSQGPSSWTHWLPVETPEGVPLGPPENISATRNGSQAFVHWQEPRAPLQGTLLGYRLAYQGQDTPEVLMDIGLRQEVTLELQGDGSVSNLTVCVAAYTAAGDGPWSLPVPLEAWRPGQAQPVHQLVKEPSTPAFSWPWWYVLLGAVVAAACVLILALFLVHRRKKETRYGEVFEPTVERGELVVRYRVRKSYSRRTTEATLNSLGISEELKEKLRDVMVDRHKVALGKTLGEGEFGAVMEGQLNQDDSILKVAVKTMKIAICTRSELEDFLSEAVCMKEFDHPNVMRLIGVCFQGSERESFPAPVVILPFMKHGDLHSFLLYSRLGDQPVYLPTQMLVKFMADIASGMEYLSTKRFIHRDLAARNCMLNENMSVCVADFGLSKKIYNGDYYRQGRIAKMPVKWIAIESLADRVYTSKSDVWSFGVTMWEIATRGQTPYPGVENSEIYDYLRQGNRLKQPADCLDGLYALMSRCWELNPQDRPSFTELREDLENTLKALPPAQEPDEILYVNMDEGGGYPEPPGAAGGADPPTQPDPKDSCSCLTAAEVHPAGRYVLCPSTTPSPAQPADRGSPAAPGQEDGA
The experiment in a line: Inhibition of Axl by fluorescence polarization competition immunoassay.

The target of data set [13] is High affinity nerve growth factor receptor (Homo sapiens, UniProt P04629). Put plainly: Inhibition of TrkA by fluorescence polarization competition immunoassay. A general note: In fluorescence polarisation assays a small probe gives low polarisation when free and higher when bound to something large.
For data set [14], the target named is Proto-oncogene tyrosine-protein kinase Src (Homo sapiens, UniProt P12931). The experiment in a line: Inhibition of Src by fluorescence polarization competition immunoassay.
Data set [15] deals with Mast/stem cell growth factor receptor Kit (Homo sapiens, UniProt P10721). The experiment in a line: Inhibition of KIT by fluorescence polarization competition immunoassay.
The next data set addresses Insulin receptor (Homo sapiens, UniProt P06213). The experiment in a line: Inhibition of IRKbeta by fluorescence polarization competition immunoassay.
The target in data set [16] is Platelet-derived growth factor receptor beta (Homo sapiens, UniProt P09619). The experiment in a line: Inhibition of PDGFRbeta by fluorescence polarization competition immunoassay.
In data set [17] the target is Macrophage colony-stimulating factor 1 receptor (Homo sapiens, UniProt P07333).
Data set [18] has as its target T2, Receptor-type tyrosine-protein kinase FLT3 (Homo sapiens, UniProt P36888).
T2 sequence (P36888 whole entry): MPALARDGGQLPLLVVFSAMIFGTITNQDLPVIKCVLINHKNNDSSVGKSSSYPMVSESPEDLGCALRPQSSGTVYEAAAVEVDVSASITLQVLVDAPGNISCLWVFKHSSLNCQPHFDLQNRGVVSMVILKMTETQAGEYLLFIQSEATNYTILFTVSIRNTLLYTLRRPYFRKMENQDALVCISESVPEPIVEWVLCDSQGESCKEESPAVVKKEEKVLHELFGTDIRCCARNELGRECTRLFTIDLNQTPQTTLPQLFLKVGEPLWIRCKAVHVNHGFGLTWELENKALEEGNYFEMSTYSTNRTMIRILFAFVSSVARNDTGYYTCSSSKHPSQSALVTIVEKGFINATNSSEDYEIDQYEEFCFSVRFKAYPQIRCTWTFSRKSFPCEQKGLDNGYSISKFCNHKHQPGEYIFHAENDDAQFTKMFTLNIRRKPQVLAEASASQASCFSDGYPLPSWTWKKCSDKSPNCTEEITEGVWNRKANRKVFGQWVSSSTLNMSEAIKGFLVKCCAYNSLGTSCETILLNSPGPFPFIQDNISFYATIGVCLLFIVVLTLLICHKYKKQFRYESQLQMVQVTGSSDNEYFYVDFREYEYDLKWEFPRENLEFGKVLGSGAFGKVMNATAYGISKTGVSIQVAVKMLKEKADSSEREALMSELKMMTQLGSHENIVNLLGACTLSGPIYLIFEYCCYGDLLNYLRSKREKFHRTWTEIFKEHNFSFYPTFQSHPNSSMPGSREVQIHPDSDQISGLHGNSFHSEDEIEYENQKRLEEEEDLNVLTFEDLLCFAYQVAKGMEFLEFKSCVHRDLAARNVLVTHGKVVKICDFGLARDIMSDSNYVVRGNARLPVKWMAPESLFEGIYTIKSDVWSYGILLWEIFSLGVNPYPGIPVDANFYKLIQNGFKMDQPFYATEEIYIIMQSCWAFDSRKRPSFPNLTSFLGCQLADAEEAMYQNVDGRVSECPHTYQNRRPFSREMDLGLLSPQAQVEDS
Put plainly: Inhibition of FLT3 by fluorescence polarization competition immunoassay.

Sequence of Macrophage colony-stimulating factor 1 receptor (P07333 whole entry): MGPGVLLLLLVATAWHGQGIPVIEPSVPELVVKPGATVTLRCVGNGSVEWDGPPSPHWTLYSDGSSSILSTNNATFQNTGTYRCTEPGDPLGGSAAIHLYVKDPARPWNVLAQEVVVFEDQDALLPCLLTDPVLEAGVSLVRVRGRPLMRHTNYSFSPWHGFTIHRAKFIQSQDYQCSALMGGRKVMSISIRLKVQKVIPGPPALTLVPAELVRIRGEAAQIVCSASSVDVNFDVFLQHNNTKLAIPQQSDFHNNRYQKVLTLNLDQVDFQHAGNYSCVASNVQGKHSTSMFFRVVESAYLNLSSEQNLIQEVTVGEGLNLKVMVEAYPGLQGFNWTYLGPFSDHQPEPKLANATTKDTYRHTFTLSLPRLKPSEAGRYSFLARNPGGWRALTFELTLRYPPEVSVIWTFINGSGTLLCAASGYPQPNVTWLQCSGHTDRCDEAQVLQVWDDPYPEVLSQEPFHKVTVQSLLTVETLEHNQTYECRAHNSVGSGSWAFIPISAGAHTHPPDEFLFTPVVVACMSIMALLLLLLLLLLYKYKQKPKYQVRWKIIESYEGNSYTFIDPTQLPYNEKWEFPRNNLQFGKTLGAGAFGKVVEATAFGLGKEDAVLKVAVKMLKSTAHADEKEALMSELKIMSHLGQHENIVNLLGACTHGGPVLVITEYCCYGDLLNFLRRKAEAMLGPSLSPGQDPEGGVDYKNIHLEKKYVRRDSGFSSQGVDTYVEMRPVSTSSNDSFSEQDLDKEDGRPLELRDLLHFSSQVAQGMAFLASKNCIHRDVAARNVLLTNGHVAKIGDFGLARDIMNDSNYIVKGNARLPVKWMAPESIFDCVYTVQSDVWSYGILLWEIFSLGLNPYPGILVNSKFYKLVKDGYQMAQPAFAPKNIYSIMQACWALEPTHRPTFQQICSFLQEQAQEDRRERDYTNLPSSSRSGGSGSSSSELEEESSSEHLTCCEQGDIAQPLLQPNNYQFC
Sequence of High affinity nerve growth factor receptor (P04629 whole entry): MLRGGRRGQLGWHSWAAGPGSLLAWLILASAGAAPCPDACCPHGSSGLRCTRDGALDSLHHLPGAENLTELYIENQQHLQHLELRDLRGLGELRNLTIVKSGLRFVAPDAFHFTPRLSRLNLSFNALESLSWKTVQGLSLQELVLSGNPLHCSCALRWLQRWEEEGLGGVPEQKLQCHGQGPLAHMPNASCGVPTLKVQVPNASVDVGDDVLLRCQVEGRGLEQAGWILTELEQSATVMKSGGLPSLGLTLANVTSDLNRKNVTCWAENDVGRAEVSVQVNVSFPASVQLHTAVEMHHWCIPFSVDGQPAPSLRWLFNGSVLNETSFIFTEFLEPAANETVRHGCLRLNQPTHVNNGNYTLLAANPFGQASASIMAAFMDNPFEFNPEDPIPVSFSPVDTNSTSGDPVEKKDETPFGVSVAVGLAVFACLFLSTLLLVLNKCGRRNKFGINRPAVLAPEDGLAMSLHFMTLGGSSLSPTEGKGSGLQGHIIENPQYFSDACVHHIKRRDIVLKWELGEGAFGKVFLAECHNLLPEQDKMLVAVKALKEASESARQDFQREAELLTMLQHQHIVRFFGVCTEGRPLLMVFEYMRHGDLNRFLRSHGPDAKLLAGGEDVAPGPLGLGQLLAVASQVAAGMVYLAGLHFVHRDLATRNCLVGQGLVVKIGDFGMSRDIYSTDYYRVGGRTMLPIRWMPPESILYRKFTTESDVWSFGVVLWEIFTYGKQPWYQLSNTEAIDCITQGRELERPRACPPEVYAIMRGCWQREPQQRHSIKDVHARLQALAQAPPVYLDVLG
Sequence of Platelet-derived growth factor receptor beta (P09619 whole entry): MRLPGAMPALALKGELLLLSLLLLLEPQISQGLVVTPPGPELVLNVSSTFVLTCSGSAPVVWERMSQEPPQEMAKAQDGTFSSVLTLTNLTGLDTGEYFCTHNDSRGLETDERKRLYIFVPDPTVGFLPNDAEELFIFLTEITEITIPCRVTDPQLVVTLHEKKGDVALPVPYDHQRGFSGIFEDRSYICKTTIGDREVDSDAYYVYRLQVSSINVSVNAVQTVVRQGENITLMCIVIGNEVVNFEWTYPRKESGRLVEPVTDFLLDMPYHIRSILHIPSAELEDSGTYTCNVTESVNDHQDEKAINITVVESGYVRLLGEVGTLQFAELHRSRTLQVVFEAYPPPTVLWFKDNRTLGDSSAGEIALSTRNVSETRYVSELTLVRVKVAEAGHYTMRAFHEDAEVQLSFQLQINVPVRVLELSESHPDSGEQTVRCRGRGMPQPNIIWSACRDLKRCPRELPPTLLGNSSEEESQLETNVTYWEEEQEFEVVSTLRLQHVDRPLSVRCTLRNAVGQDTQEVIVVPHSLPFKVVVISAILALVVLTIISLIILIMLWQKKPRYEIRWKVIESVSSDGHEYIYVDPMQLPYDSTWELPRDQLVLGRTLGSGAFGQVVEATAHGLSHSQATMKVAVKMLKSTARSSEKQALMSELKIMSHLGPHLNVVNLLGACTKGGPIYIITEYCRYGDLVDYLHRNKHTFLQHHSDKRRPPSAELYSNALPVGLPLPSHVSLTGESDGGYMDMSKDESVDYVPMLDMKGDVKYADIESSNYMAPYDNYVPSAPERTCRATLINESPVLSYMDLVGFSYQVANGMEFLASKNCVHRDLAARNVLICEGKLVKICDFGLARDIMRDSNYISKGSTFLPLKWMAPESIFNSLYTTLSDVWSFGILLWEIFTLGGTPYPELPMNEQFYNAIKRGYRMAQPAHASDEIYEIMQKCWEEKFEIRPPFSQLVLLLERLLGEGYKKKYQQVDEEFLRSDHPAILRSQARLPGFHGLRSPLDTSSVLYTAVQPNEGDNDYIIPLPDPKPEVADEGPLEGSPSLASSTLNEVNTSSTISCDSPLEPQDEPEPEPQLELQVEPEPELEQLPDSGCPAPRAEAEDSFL
Sequence of Insulin receptor (P06213 28-758 limits assumed): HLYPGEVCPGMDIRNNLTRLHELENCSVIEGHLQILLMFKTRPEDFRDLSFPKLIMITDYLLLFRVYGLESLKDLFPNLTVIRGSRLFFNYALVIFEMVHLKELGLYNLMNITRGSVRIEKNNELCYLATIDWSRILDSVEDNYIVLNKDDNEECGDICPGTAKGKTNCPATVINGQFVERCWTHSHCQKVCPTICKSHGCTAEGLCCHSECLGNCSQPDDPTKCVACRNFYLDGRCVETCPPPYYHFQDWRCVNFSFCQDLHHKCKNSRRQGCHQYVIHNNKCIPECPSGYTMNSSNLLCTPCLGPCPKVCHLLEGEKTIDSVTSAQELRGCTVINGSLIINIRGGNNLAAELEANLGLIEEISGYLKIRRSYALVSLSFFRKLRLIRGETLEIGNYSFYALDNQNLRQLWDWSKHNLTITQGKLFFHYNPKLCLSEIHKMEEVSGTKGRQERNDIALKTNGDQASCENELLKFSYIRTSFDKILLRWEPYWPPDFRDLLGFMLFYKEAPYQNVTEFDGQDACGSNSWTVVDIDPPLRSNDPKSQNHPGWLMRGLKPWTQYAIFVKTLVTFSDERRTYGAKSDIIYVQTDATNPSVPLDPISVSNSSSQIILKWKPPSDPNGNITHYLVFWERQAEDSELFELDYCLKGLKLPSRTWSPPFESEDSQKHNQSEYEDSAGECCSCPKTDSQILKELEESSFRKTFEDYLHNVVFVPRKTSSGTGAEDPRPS
Sequence of Insulin receptor (P06213 763-1382 limits assumed): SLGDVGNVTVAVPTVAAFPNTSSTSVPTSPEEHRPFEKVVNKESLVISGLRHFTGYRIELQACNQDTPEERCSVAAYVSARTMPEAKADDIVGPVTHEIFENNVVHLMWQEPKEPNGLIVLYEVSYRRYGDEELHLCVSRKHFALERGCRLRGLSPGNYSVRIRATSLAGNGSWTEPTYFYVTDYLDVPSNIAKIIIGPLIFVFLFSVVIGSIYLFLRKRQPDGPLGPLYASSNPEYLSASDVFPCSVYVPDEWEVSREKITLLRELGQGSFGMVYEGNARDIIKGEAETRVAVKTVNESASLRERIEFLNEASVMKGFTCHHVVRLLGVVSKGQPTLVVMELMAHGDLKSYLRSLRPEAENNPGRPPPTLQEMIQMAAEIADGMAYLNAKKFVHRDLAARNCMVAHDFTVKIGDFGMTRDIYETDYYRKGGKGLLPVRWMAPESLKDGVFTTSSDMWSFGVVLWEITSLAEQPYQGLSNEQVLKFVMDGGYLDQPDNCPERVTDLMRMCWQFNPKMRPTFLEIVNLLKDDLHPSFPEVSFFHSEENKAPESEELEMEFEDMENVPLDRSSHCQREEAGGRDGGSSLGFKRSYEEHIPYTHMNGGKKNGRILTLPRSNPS
Sequence of Proto-oncogene tyrosine-protein kinase Src (P12931 2-536 limits assumed): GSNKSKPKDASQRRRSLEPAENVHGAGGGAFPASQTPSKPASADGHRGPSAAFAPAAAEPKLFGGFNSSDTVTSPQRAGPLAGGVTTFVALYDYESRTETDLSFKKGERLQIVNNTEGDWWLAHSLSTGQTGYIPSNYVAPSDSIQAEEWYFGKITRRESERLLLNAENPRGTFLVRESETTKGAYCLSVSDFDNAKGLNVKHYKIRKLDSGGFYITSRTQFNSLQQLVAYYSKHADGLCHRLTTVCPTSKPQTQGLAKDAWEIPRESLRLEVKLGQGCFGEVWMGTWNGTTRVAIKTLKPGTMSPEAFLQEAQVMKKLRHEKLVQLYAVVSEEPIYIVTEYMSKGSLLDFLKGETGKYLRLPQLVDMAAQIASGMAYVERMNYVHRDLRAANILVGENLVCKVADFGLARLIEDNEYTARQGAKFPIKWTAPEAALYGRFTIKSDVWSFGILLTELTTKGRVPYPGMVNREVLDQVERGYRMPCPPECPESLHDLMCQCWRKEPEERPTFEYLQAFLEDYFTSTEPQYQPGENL

Consider `CCc1ccc(-n2cc(C(=O)NOC)c(=O)c3cnc(Nc4ccc(C5CCN(C)CC5)cc4)nc32)cc1`, for which the Activity entry in the data set listed under Rattus norvegicus [1], in the data set listed under Rattus norvegicus [8] and in the data set listed under Rattus norvegicus [10] was “Non-toxic” throughout. Moreover, the remaining at 10 min in [2] came out at 75%; in data set [9] it was 96%. Besides, in data set [3], the bioavailability stood at 103%. In addition, in [4], the clearance (in general, a measure of how efficiently the substance is removed, as volume per time) was 8 mL/min/kg. For the same compound, the Vd in data set [5] was determined as 5.9 L/kg. For the same compound, the half-life (as a rule, how long it takes for the measured level to halve) is 8 h in [6] and 8.1 h in [7]. In addition, in data set [11], the peak level (Cmax) was 3.4 µM.

For `CONC(=O)c1cn(-c2ccc3c(c2)CCC3)c2nc(Nc3ccc(CCN4CCN(C)CC4)cc3)ncc2c1=O`, the IC50 – broadly, the point on the concentration scale where inhibition reaches its midpoint – in data set [12] was > 500 nM; in data set [13], > 500 nM; in [14], 1500 nM; in data set [15], 6 nM; at Insulin receptor it was 19800 nM; in data set [16], 5300 nM. Moreover, the results for the IC50 in [17] and in data set [18] were 0.7 nM and 36 nM, respectively. Besides, the bioavailability in data set [3] is 57%. In [4], this compound gave a clearance of 4 mL/min/kg. Further, the Vd in data set [5] is 1.5 L/kg. Moreover, the half-life is 4.5 h in [6] and 6.5 h in data set [7]. For the same compound, the remaining at 10 min in data set [9] was 78%. Besides, the peak level in [11] (Cmax) was 2.7 µM.

(Values after ChEMBL document CHEMBL1140940, “Pyrido[2,3-d]pyrimidin-5-ones: a novel class of antiinflammatory macrophage colony-stimulating factor-1 receptor inhibitors” (J Med Chem, 2009).)
